Reference: PMC9463526 (Journal of Pharmaceutical Analysis, 2022)
Where two headings read alike, the source gives them in different places.

Experiments:
[1] = Levels in intraoperatively collected CSF of GBM patients; assay type: in vivo; conditions: human, po, five GBM patients, oral LY3214996 200 mg once daily and abemaciclib 150 mg twice daily for 5 days, intraoperative CSF
Procedure: (§1) Blank brain and clinical brain tumor tissue homogenates were prepared at 1:9 (m/V) ratio with PBS. The samples were homogenized at a speed of 6.00 m/s for 40 s for three cycles using a Bead Ruptor Elite homogenizer (Omni International, Kennesaw, GA, USA). Plasma was used as a surrogate matrix when preparing calibration curves for brain and brain tumor homogenates and CSF as well as for the PBS fraction after sample dialysis. To minimize matrix differences, all plasma samples were spiked with PBS, while all non-plasma samples were spiked with plasma. Extraction of the analyte and IS was facilitated by protein precipitation using methanol-containing IS precipitation solution. Samples (70 μL) spiked with PBS or plasma were precipitated using 400 μL of IS precipitation solution. After centrifugation at 12,000 r/min for 10 min at 4 °C, the supernatant was transferred for LC-MS/MS analysis.
(§2) The validated bioanalytical method was employed to investigate analytes pharmacokinetics in the plasma, brain tumor, and CSF in GBM patients (ClinicalTrials.gov identifier: NCT04391595). The protocol was reviewed and approved by the Institutional Review Board of the Barrow Neurological Institute, St. Joseph's Hospital and Medical Center (Phoenix, AZ, USA). All patients enrolled in the trial provided written informed consent. […] Blood, CSF, and GBM tissue (including gadolinium-contrast enhancing and non-enhancing regions) samples were obtained intra-operatively from each patient on the […] on the planned operation day. Blood was centrifuged at 4 °C and 3,000 r/min for 10 min; plasma was subsequently collected. Brain tumors were resected 7–9 h after the last dose was administered. Once resected, the tissue samples were rinsed with PBS, paper dried, and freshly frozen in liquid nitrogen. The samples were then stored at −80 °C in a freezer for later analysis.

[2] = Pilot pharmacokinetic studies in mice (blood-brain barrier); assay type: in vivo
[3] = parameters: method as in investigational brochures; conditions: ref investigational brochures; cited from earlier work
[4] = Tumor-to-plasma partition coefficients (Kp, Kp,uu) in GBM patients; assay type: in vivo, human; conditions: for Unbound tumor-to-plasma partition coefficient (Kp,uu), fold lower than abemaciclib: both GBM regions, five patients
Procedure: as §1
Unbound drug levels in the actual plasma and brain tumor tissue were measured using dialysis for 16 h to reach equilibrium. The mean of fraction unbound values determined in five patient samples was calculated.
as §2, with “The samples were then stored at −80 °C in a freezer for later analysis.” left out

Row | concentration at 6 day (intra-operative) ([1]; read-out: Level in CSF (range)) [nM] | concentration at 6 day (intra-operative) ([1]; read-out: Median level in CSF) [nM] | Crossing of the blood-brain barrier [2] | Unbound tumor-to-plasma partition coefficient (Kp,uu), fold lower than abemaciclib [4] | Total tumor-to-plasma partition coefficient (Kp), fold higher than M20 ([4]; gadolinium-contrast enhancing and non-enhancing GBM regions) [fold] | SMILES | pKa (strongest basic) [3]
1 | 49.7 to 118 | 95.5 | may cross the blood-brain barrier |  |  | Cn1nccc1Nc1nccc(-c2cc3c(s2)C(C)(C)N(CCN2CCOCC2)C3=O)n1 [LY3214996] | 6.21
2 | 1.8 to 30.4 | 11.7 |  | at least 3 fold | > 2 | Cc1nc2c(F)cc(-c3nc(Nc4ccc(CN5CCNCC5)cn4)ncc3F)cc2n1C(C)C [M2] | 
3 | 3.1 to 58.1 | 12.7 |  | at least 3 fold |  | CCN1CCN(Cc2ccc(Nc3ncc(F)c(-c4cc(F)c5nc(CO)n(C(C)C)c5c4)n3)nc2)CC1 [M20] | 
